The results in this text go back to ChEMBL document CHEMBL3352235, “Design, synthesis and biological evaluation of 17-arylmethylamine-17-demethoxygeldanamycin derivatives as potent Hsp90 inhibitors” (Eur J Med Chem, 2014).

As a reminder, the IC50 is the concentration at which inhibition is half-maximal. By T/C is commonly meant the result in the treated group divided by that in the control group, in per cent.

Data set [1] has as its system Mus musculus. The data set can be described thus: Hepatotoxicity in Kunming mouse assessed as serum AST level at 10 mg/kg, iv (reference value: 197.2 +/- 11.2 U/L). In kind it is toxicity, organism-based. The arrangement: dose 10 mg/kg, route intravenous. To be noted: in vivo.
Data set [2] deals with Mus musculus. Put plainly: Hepatotoxicity in Kunming mouse assessed as serum ALT level at 10 mg/kg, iv (reference value: 60.7 +/- 6.9 U/L). In kind it is toxicity, organism-based. Also on record: dose 10 mg/kg, route intravenous. Particulars: in vivo.
Data set [3] deals with Heat shock protein HSP 90-alpha (Homo sapiens, UniProt P07900). The data set can be described thus: Displacement of GA-FITC from human recombinant HSP90alpha ATP-binding site by fluorescence polarization assay.
Data set [4] concerns MDA-MB-231. Put plainly: Antitumor activity against human MDA-MB-231 cells xenografted in BALB/c mouse assessed as reduction in tumor weight at 10 mg/kg, iv dosed every 3 days for 15 days. In kind it is functional. Particulars: read-out: GI.
For data set [5], the system named is MDA-MB-231. Put plainly: Antitumor activity against human MDA-MB-231 cells xenografted in BALB/c mouse assessed as tumor volume at 10 mg/kg, iv dosed every 3 days for 15 days relative to untreated control. In kind it is functional. (In general: In xenograft studies the graft and the host belong to different species.)
In data set [6] the test system is LNCaP. Put plainly: cells. Particulars: Homo sapiens, 72 h.
Description: Cytotoxicity against human LNCAP cells after 72 hrs by MTT assay
Data set [7] relates to MDA-MB-231. Put plainly: cells. Particulars: Homo sapiens, MDA-MB-231, 72 h.
Description: Cytotoxicity against human MDA-MB-231 cells after 72 hrs by MTT assay

For `CO[C@H]1/C=C\C=C(/C)C(=O)NC2=CC(=O)C(NCc3ccc(C(F)(F)F)nc3)=C(C[C@@H](C)C[C@H](OC)[C@H](O)[C@@H](C)/C=C(\C)[C@@H]1OC(N)=O)C2=O`, the Activity in data set [1] was found to be 164.1 U/L; in data set [2], 61 U/L. Also, the half-maximal inhibitory concentration (IC50) in data set [3] came to 430 nM; in data set [6], 350 nM; in data set [7], 100 nM. In data set [4], the inhibition in vivo at 10 mg/kg came out at 63%. The T/C in data set [5] came to 31%.
